Laboratory results as given in patent US9284283B2, “Macrocyclic compounds for modulating IL-17” (ENSEMBLE THERAPEUTICS CORPORATION, priority 2012, dated 2016).

Tests used:
[1] = target: T1, biotinylated human IL-17 (binding to IL17R/Fc) (Homo sapiens, UniProt Q16552); assay: IL-17 competition ELISA II (captured IL17R/Fc, biotinylated IL-17)
T1 construct: purchased R&D Systems 317-ILB (IL-17, biotinylated); 177-IR (IL17R/Fc)
T1 sequence (Q16552 20-155 limits assumed): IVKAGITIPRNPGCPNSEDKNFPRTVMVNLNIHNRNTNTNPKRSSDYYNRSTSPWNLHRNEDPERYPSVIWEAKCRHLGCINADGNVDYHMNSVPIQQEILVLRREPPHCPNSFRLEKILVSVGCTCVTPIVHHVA
In short: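 Anti-human IgG-coated plates captured IL17R/Fc (10 nM), then compound (5-fold dilutions from 1 μM) and biotinylated human IL-17 (20 nM stock) were added for 30 min at room temperature in PBST. Bound IL-17 detected by streptavidin-HRP/TMB at 450 nm. IC50 from 4-parameter logistic fit between no-competitor and blank controls.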

[2] = test system: IL-17A induced secretion of IL-6 in primary human RASF cells; assay: Inhibition of IL17A induced secretion of IL6 in human rheumatoid arthritis synovial fibroblast (RASF) cells; type: cell-based; details: Homo sapiens, Fibroblast
Description: This assay was used to determine the extent of inhibition of IL-17A induced secretion of IL-6 in primary human rheumatoid synovial fibroblast (RASF) cells by compounds of the invention. IL-17A is known to stimulate IL-6 production in RASF cells.
Low passage (passage 2-8) Primary human RASF cells (Asterand) were maintained in maintenance medium. Cells were detached from flasks by tryptic digestion and the cell density of the suspension determined. To each well of a 96 well culture plate was added 100 μL of seeding medium containing 50,000 cells/mL and the plate incubated overnight in a humidified 37° C., 5% CO2 incubator. The medium was replaced with fresh assay medium and cells were incubated for additional 5 hours in a humidified 37° C., 5% CO2 incubator prior to stimulation with recombinant human IL-17A (“rhIL-17A”). Prior to addition to cells, rhIL-17A (30 ng/mL) in assay medium was incubated with either DMSO alone, compounds, or anti-IL17 receptor antibody (3 μg/mL) for 1 hour at 37° C. The final concentration of DMSO in all samples was 0.25%. The final concentration of compounds varied from 0.03 μM to 25 μM.
Immediately before stimulation, cells were washed once with fresh assay medium. Then, 100 μL of the test samples was added in triplicate wells and the plates incubated for 20 hours in a humidified 37° C., 5% CO2 incubator. The assay medium from each well was collected and the IL-6 concentration in cell culture supernatants was determined by ELISA either immediately or after storage at −20° C.
A water-soluble tetrazolium salt (WST1) viability assay was immediately performed on the cells after the conditioned medium was collected using a WST1 reagent purchased from Roche. The concentration of IL-6 obtained from ELISA was normalized by the WST1 data.

SMILES | IC50 [1] [nM] | IC50 [2] [nM]
O=C1CC2(CCCC2)CC(=O)N[C@H](Cc2ccc(NC(=O)[C@H](Cc3ccccc3Cl)NC(=O)Cc3ccc(F)cc3)cc2)C(=O)N[C@H](CC2CCCCC2)C(=O)NCCCCCN1 [Compound 499] | < 100 | 100 to 1000
O=C1CC2(CCCC2)CC(=O)N[C@H](Cc2ccc(NC(=O)[C@H](Cc3ccc(F)cc3Cl)NC(=O)Cc3ccc(F)cc3)cc2)C(=O)NCCOCCOCCN1 [Compound 502] | < 100 | 1000 to 10000
C[C@H]1NC(=O)[C@@H](Cc2ccc(NC(=O)[C@H](Cc3ccccc3C(F)(F)F)NC(=O)C3(c4ccc(F)cc4)CC3)cc2)NC(=O)CC2(CCCC2)CC(=O)N(C)CCCCCNC1=O [Compound 507] | < 100 | 1000 to 10000
C[C@H]1NC(=O)[C@@H](Cc2ccc(NC(=O)[C@H](Cc3ccccc3Cl)NC(=O)C3(c4ccc(F)cc4)CC3)cc2)NC(=O)CC2(CCCC2)CC(=O)N[C@H](C(=O)O)CCCCNC1=O [Compound 513] | < 100 | 100 to 1000
Cc1ccccc1C[C@H](NC(=O)Cc1ccc(F)cc1)C(=O)Nc1ccc(C[C@H]2NC(=O)CC3(CCCC3)CC(=O)NCCCCCNC(=O)[C@@H](CCC(N)=O)NC2=O)cc1 [Compound 515] | < 100 | < 100
O=C1CC2(CCCC2)CC(=O)N[C@H](Cc2ccc(NC(=O)[C@H](Cc3ccccc3Cl)NC(=O)c3ccccc3)cc2)C(=O)NCCOCCOCCN1 [Compound 522] | < 100 | 1000 to 10000
C[C@H]1NC(=O)[C@@H](Cc2ccc(NC(=O)[C@H](Cc3ccccc3Cl)NC(=O)Cc3ccc(F)cc3)cc2)NC(=O)CC2(CCCC2)CC(=O)N[C@H](C(=O)O)CCCCNC1=O [Compound 529] | < 100 | < 100
C[C@H]1NC(=O)[C@@H](Cc2ccc(NC(=O)[C@H](Cc3ccccc3Cl)NC(=O)Cc3ccc(F)cc3)cc2)NC(=O)CC2(CCC2)CC(=O)NCCCCCNC1=O [Compound 535] | < 100 | 1000 to 10000
C[C@H]1NC(=O)[C@@H](Cc2ccc(NC(=O)[C@H](Cc3ccccc3Cl)NC(=O)C(F)(F)c3ccccc3)cc2)NC(=O)CC2(CCC2)CC(=O)NCCCCCNC1=O [Compound 536] | < 100 | 100 to 1000
C[C@H]1NC(=O)[C@@H](Cc2ccc(NC(=O)[C@H](Cc3ccccc3Cl)NC(=O)Cc3ccc(F)cc3)cc2)NC(=O)CC2(CCCC2)CC(=O)N(C)CCN(C)CCN(C)C1=O [Compound 539] | < 100 | 1000 to 10000
C[C@H]1NC(=O)[C@@H](Cc2ccc(NC(=O)[C@H](Cc3ccccc3Cl)NC(=O)C(F)(F)c3ccccc3)cc2)NC(=O)CC2(CCCC2)CC(=O)N(C)CCN(C)CCN(C)C1=O [Compound 540] | < 100 | 1000 to 10000
C[C@H]1NC(=O)[C@@H](Cc2ccc(NC(=O)[C@H](Cc3ccccc3Cl)NC(=O)C(=O)c3ccccc3)cc2)NC(=O)CC2(CCCC2)CC(=O)NCCCCCNC1=O [Compound 549] | < 100 | < 100
C[C@H]1NC(=O)[C@@H](Cc2ccc(NC(=O)[C@H](Cc3ccccc3Cl)NC(=O)[C@@H](O)c3ccccc3)cc2)NC(=O)CC2(CCCC2)CC(=O)NCCCCCNC1=O [Compound 550] | < 100 | 1000 to 10000
C[C@H]1NC(=O)[C@@H](Cc2ccc(NC(=O)[C@H](Cc3ccccc3Cl)NC(=O)[C@H](O)c3ccccc3)cc2)NC(=O)CC2(CCCC2)CC(=O)NCCCCCNC1=O [Compound 551] | < 100 | 1000 to 10000
C[C@H]1NC(=O)[C@@H](Cc2ccc(NC(=O)[C@H](Cc3ccccc3Cl)NC(=O)Cc3ccc(N(C)C)cc3)cc2)NC(=O)CC2(CCCC2)CC(=O)NCCCCCNC1=O [Compound 552] | < 100 | < 100
CN(C)c1ccc(CC(=O)N[C@@H](Cc2ccccc2Cl)C(=O)Nc2ccc(C[C@H]3NC(=O)CC4(CCCC4)CC(=O)NCCOCCOCCNC3=O)cc2)cc1 [Compound 553] | < 100 | 100 to 1000
C[C@H]1NC(=O)[C@@H](Cc2ccc(NC(=O)[C@H](Cc3ccccc3Cl)Nc3nc4ccccc4o3)cc2)NC(=O)CC2(CCCC2)CC(=O)NCCCCCNC1=O [Compound 555] | < 100 | < 100
